Laboratory results as given in the NIST ThermoML archive (doi:10.1016/j.jct.2012.02.028).

Settings: 101.33 kPa, Crystal, Vacuum adiabatic calorimetry

O=C([O-])[O-].[Zn+2] [zinc(II) carbonate]
Settings | molar entropy [J/K/mol]
5 K | 0.00258
10 K | 0.02006
15 K | 0.07123
20 K | 0.1881
25 K | 0.41
30 K | 0.7694
35 K | 1.284
40 K | 1.959
45 K | 2.788
50 K | 3.759
55 K | 4.862
60 K | 6.081
65 K | 7.403
70 K | 8.815
75 K | 10.3
80 K | 11.85
85 K | 13.45
90 K | 15.1
95 K | 16.78
100 K | 18.49
105 K | 20.21
110 K | 21.95
115 K | 23.7
120 K | 25.45
130 K | 28.95
140 K | 32.44
150 K | 35.9
160 K | 39.32
170 K | 42.69
180 K | 46.02
190 K | 49.28
200 K | 52.5
210 K | 55.65
220 K | 58.75
230 K | 61.8
240 K | 64.79
250 K | 67.73
260 K | 70.62
270 K | 73.48
273.15 K | 74.37
280 K | 76.29
290 K | 79.06
298.15 K | 81.28
300 K | 81.78
310 K | 84.45
320 K | 87.09
